Measured values published in patent US7094754B2, “Anti-aging and wound healing compounds” (Kimberly-Clark Worldwide, Inc., priority 2001, dated 2006).
Ends that are not written are not given here.

Tests used:
Format in all cases: cell-based
[1] = test system: neutrophils isolated from human blood; experiment: Neutrophil migration assay (transwell); settings: 10 nM, positive control; HSA 0.4%
Protocol: Peptides were synthesized and purified by the Microchemical Facility at Emory University or by SigmaGenesis. All peptides were analyzed by mass spectrometry after HPLC to assess purity. Approximately 0.5–2.0 milligrams of peptide were used to make fresh stock solutions (5 mg/mL in HBSS/HSA) for each migration assay. The peptide stock solutions were used to make more dilute solutions (1 mg/mL, 100 μg/mL, 10 μg/mL, 1 μg/mL, 100 ng/mL, and 10 ng/mL) in HBSS/HSA for the assays.
Neutrophils were isolated from human blood (collected in Vacutainerm tubes containing EDTA) by layering the blood/EDTA mixture (about 20 mL) on top of two layers of Histopaque™ 1119 (bottom layer, 18 mL) and 1077 (top layer, 7 mL) in 50 mL Falcon tubes. The tubes were centrifuged at 1800 rpm for 30 minutes (no brake). Four layers appeared in the tubes after the spin (from top to bottom layers): plasma, 1077, 1119, and red blood cells. The buffy coat between the plasma and 1077 layers contained lymphocytes, monocytes, and some platelets. The plasma layer, the buffy coat, and most of the 1077 layer was removed and discarded. The 1119 layer that contained the neutrophils was removed and was placed into a clean 50 mL tube. Dulbecco's Phosphate Buffered Saline (DPBS) was added to bring the volume to 50 mL. The cells were centrifuged for 15 minutes at 2100 rpm. The cells were resuspended in 10 mL of DPBS, transferred to 15 mL tubes, and centrifuged again for 10 minutes at 2000 rpm. This process was repeated to wash the cells a second time. After the supernatant was removed, the red blood cells were lysed by adding 6 mL of cold sterile water to each 15 mL of supernatant. Cells were mixed in the water for only 30 seconds. Six mL of cold 2% sterile saline was then added. Cells were centrifuged again for 10 minutes at 2000 rpm. The red supernatant (containing hemoglobin from red blood cells) was removed. This process of red blood cell lysis was repeated two more times to remove all of the red blood cells. After most of the red blood cells were removed, neutrophils were resuspended in 10 mL of HBSS/HSA for counting with trypan blue.
A neutrophil migration assay was performed in duplicate using a 24-well transwell plate (3 μm pore size for membrane). Transwell membranes were pre-moistened with 20–40 μL of HBSS/HSA (0.04–0.4%). Chemotactic solutions (500 μL) were added to the bottom of each well. […] Transwells were then placed into the chemotactic solutions. The plate was placed into the incubator (37° C., 5% CO2) for one hour. Cells that migrated through the membrane were counted using trypan blue.
In the neutrophil migration experiments, neutrophils that were isolated were approximately 95% viable. Neutrophils were resuspended in HBSS/0.4%HSA for this experiment. IL-8 (10 nM in the HBSS/0.4%HSA buffer) was used as a positive control for neutrophil migration.

[2] = Viability assay (MTT) in EpiDerm skin model; settings: human, EpiDerm skin model (MatTek), relative to PBS control, average over 500 μM and 2 mM, read-out: total average viability
From the text: FIG. 16 provides a bar graph showing the percent living cells, relative to a positive control, in a skin model after treatment with two concentrations of peptide. The first sample, treated with phosphate buffered saline (PBS), is the positive control used to establish the cell count representing 100% viability. The second sample is a negative control where cells were exposed to 1% Triton-X100, showing that the assay can detect cell death. […] Data shown represent the average of three tests.
The sample containers were transferred to 6 well plates that contained fresh media. All peptides were dissolved in PBS at a final concentration of 10 mM, and 100 μL each peptide solution was pipetted onto the surface of the Epiderm sample container. Incubation was continued for 12 hours at 37° C., 5% CO2. After the incubation period, the sample containers were washed three times with PBS and the sample containers were transferred to a 24 well plate that contained 300 μL of MTT assay media per well (MTT concentration was 1 mg/mL). The colorimetric assay was allowed to develop for three hours (incubation at 37° C., 5% CO2). Sample containers were then transferred to a 24 well culture plate that contained 2 mL of isopropanol per well. Extraction of the colored precipitate occurred over a period of four hours at room temperature. Absorbance readings were taken at 570 nm and 650 nm for each sample. The percent viability of each sample relative to a PBS control was calculated as: 100×(OD570^sam−OD650^sam)/(OD570^con−OD650^con) (6) Routinely, the peptide sample was assayed in triplicate. Results The sequence of matrix metalloproteinase-2 (SEQ ID NO:14) is provided below to facilitate definition of the various domains and regions in matrix metalloproteinases.

[3] = test system: normal human dermal fibroblasts (NHDF); experiment: NHDF migration assay (48-well chemotaxis chamber); settings: three hours
Protocol: Normal, human dermal fibroblasts (NHDF) were obtained from Biowhittaker, (Walkersville, Md.) and propagated in T75 flasks in FBM media (500 mL, Biowhittaker) containing insulin, hFGF-b, GA-1000, and fetal bovine serum (10 mL) for up to 12 passages. For the migration assay, NHDF were washed once with 10 mL of Hank's buffered saline solution (HBSS). Three milliliters of trypsin (0.25%) in EDTA were added to the T75 flask for no more than five minutes to remove NHDF from the flask. NHDF in trypsin solution were added to 7 mL of FBM with no supplements added. NHDF were centrifuged for 5 minutes, and the supernatant was removed. NHDF were resuspended in 10 mL of FBM for counting. NHDF were centrifuged for another 5 minutes, and the supernatant was removed. NHDF were resuspended at 1×10^6 cells per mL in FBM without supplements. It was important to use FBM media only in migration assays because the complete media contains fibroblast growth factor and serum, both of which will trigger migration of fibroblasts.
Peptides were synthesized and purified by the Microchemical Facility at Emory University or by SigmaGenesis. All peptides were analyzed by mass spectrometry after HPLC to assess purity. Approximately 0.5–2.0 milligrams of peptide were used to make fresh stock solutions (5 mg/mL in PBS) for each migration assay. The peptide stock solutions in PBS were used to make more dilute solutions (1 mg/mL, 100 μg/mL, 10 μg/mL, 1 μg/mL, 100 ng/mL, 10 ng/mL) in FBM (without supplements) for the migration assays.
Polyvinylpyrrolidone-free polycarbonate membranes with […] pores (Neuroprobe, Inc., Gaithersburg, Md.) were washed with 90% ethanol for 15 minutes and rinsed four times with deionized water. Membranes were then placed into a glass dish containing an aqueous solution of 5 μg/mL gelatin. The glass dish was placed in to a water bath at about 90° C. for one hour. Membranes were removed from the gelatin solution and were allowed to dry for one hour in the 37° C. incubator.
A 48-well chemotaxis chamber (Neuroprobe, Inc., Gaithersburg, Md.) (see FIG. 20) was used for the migration assays. Twenty-eight/μL of each test solution were added to the bottom wells of the chamber in quadruplicate. A gelatin-treated membrane was placed carefully on top of the bottom wells. The gasket and top part of chamber were then placed carefully on top of the membrane. The apparatus was tightened using six thumbscrews. A solution of NHDF containing an estimated cell density (2×10^5 cells per mL) was made by adding 320 μL of the 1×10^6 cells per mL solution to 1.28 mL of FBM (no supplements). Fifty microliters of the 2×10^5 cells per mL NHDF solution were added to the top part of each well in the chamber. The chamber was placed in the incubator at 37° C./5% CO2 for three hours. The chamber was removed, the thumbscrews were removed, and the chamber was turned upside down on a paper towel. […] The membrane was carefully removed. […] The membrane was fixed with methanol and stained using the Diff-Quik Staining Solutions I and II. The nuclei of NHDF are stained purple. The membrane was mounted on a glass slide using cedarwood immersion oil and a cover slip. […] The average number of migrated NHDF in the negative control was subtracted from the experimental (peptide) data and positive control data.

Row | Substance | Percent Neutrophil Migration exp.1 [1] [%] | viability at 12 h [2] [%] | percent of migrated NHDF compared to plasma fibronectin positive control ([3]; 100 μg/mL peptide) [%] | percent of migrated NHDF compared to plasma fibronectin positive control ([3]; 1000 μg/mL peptide) [%]
1 | IL-8: positive control for neutrophil migration (10 nM in HBSS/HSA buffer) [reference compound] | 81 | – | – | –
2 | NYNFFPRKPK [10-mer] | – | 89.6 | 11±0 | 30±2
3 | PRCGNPDVA [9-mer] | – | 95.8 | 16±0 | 32±2
